From US10329542B2, “HBV RNAse H purification and enzyme inhibitors” (Saint Louis University, priority 2012, dated 2019)

Experiments:
[1] = biological target: T1, HBV genotype D RNAseH (HRHPL) (Hepatitis B virus genotype D subtype ayw, UniProt P03156, INS679M); assay: Oligonucleotide-directed RNAseH cleavage assay, HBV genotype D; type: biochemical; conditions: for Residual activity at 10 uM, Genotype D: ± standard deviation, 3 to 7 replicates; for Activity vs. HBV Biochemical vs. gtD: class by concentration giving inhibition (10, 20, 60 μM)
T1 construct: HRHPL contains HBV genotype D (Genbank V01460) polymerase residues 684-845; made in house; host or cells: E. coli BL21 codon+

[2] = system: HBV genotype H RNAseH; assay: Oligonucleotide-directed RNAseH cleavage assay, HBV genotype H; type: biochemical, Hepatitis B virus; conditions: 10 μM; ± standard deviation, 3 to 7 replicates
Method: (§1) For the oligonucleotide-directed RNAseH cleavage assay (Gong et al., 2001), 6 μl protein extract (typical protein concentration 2.8 mg/ml) was mixed with 0.5 μg internally ^32P-labeled DRF+ RNA (nucleotides 2401-2605 of the duck HBV genome plus 60 nucleotides of flanking sequences from pBluescript) and 3 μg oligonucleotide D2507- or its corresponding negative control D2526+ on ice in 20 μl under the conditions in Table 1. Some reactions in FIG. 5 employed oligonucleotide D2543M-Sal or its D2453+ negative control as indicated. The reactions were incubated at 42° C. for 90 min. and terminated by addition of Laemmli protein loading buffer and boiling. The samples were resolved by 12% SDS-PAGE, the gels were stained with Coomassie blue to monitor protein loading, and labeled RNA was detected by autoradiography. Candidate inhibitors were dissolved in DMSO and added at the indicated concentrations during assembly of the reactions. Control reactions lacking the compounds contained DMSO as a vehicle control. The RNAseH autoradiograms were scanned and quantified with ImageJ. The oligonucleotides were: D2526+([…]; SEQ ID NO:8), D2507-([…]; SEQ ID NO:9), D2453+([…]; SEQ ID NO:10), and D2543M-Sal ([…]; SEQ ID NO:11).
Oligonucleotide-directed RNAseH cleavage assays (Gong et al., 2001) were performed as described (Tavis et al., 2013). Briefly, HBV RNAseH extracts were mixed with a 264 nt-long internally ^32P-labeled RNA plus an excess of a complementary DNA oligonucleotide or its inverse-complement as a negative control in a final concentration of 65 mM Tris pH 8.0, 190 mM NaCl, 5 mM MgCl2, 5 mM dTT, 0.05% NP40, and 6% glycerol. βTJ was dissolved in DMSO and added at the indicated concentrations; the final concentration of DMSO in all reactions was 1%. The reactions were incubated at 42° C. for 90 min. and terminated by addition of Laemmli protein electrophoresis buffer. The samples were resolved by SDS-PAGE, labeled RNA was detected by autoradiography, the autoradiograms were scanned, and the RNA cleavage products were quantified with ImageJ (National Institutes of Health). IC50 values were calculated by non-linear regression using GraphPad Prism (GraphPad Software, Inc.).

[3] = biological target: T2, chimeric HBV:HIV RNAseH HHC1 (Hepatitis B virus genotype D subtype ayw, UniProt P03156, DELINS787-795[…]/INS679M); assay: Oligonucleotide-directed RNAseH cleavage assay, chimeric HHC1; type: biochemical; conditions: 10 μM; ± standard deviation, 3 to 7 replicates
T2 construct: HHC1 is an HRHPL derivative; made in house; host or cells: E. coli BL21 codon+
Description: pCMV-HBV-LE-(CMV-HBV) is an HBV over-length genomic expression vector containing 1.2 copies of the HBV(adw2) genome (Genbank X02763.1) downstream of the CMV promoter cloned into pBS (Promega). Surface protein expression from this vector is ablated by mutating the preS and S open reading frames. pCMV-HBV(genotype D) is an analogous HBV genomic expression construct and was a gift from Dr. Shuping Tong (Brown University). For bacterial expression, codon-optimized cDNA sequences for HRHPL (genotypes A, B, C, D, and H), and noncodon-optimized sequences for HHC1 and HHC2 were cloned by gene synthesis (Genscript) between the NcoI and EcoRI sites into pTrcHis2B (Invitrogen) with a C-terminal hexahistidine tag. HRHPL contains HBV genotype D (Genbank V01460) polymerase residues 684-845. HHC1 is an HRHPL derivative in which HBV polymerase residues 800-808 were replaced with HIV residues corresponding to the RNAseH helix D ([…]; SEQ ID NO:6). HHC2 is an HRHPL derivative in which HBV polymerase residues 800-845 were replaced with HIV residues corresponding to the RNAseH helix D to the C-terminus ([…]; SEQ ID NO:7). The human RNAseH1 gene (NP_002927.2) was cloned with an N-terminal hexahistidine-tag between the BamHI and XhoI sites of pRsetB (Invitrogen) by gene synthesis.
as §1

[4] = system: HBV; assay: HBV genomic replication assays (Table 2); type: cell-based, Hepatitis B virus; conditions: class by active concentration
Method in brief: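 Huh7 cells transfected with HBV plasmid received compound at 10 or 50 μM, refreshed every 1-2 days. Core-particle DNA isolated 4-5 days post-transfection was analysed by Southern blot, with or without RNaseH. For the screen, replicating cells got 60, 20 or 6.7 μM, refreshed days 1-2, and plus-strand DNA was quantified on day 3 by cross-gap TaqMan PCR.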

[5] = biological target: HCV RNA-directed RNA polymerase (Hepatitis C virus genotype 1a, UniProt P27958); assay: Primed homopolymeric RNA (poly-G) synthesis assay; type: biochemical; conditions: 10 μM
Method: FIGS. 9A-C. Specificity of anti-HBV RNAseH compounds. (FIG. 9A) Inhibition of HBV genotype D RNAseH by irrelevant compounds at 10 μM in the oligonucleotide-directed RNAseH assay. Compound #4 was employed as an example HBV RNAseH inhibitor. […] The ability of compounds #5, 6 and 8 to inhibit production of poly-G by the HCV RNA-directed RNA polymerase was measured in a primed homopolymeric RNA synthesis assay (Cao, et al., 2011. The compounds were employed at 10 μM. DMSO, vehicle control. (FIG. 9C) Dose-responsiveness of HBV RNAseH inhibition. The effects of compounds #6, 8, and 12 on the RNAseH activity of HRHPL (genotype D) were measured at concentrations ranging from 0.5 to 50 μM. The dose-response profile is plotted for compound #12.

[6] = mice and rats, doses 10 to 58 times those used in humans; cited from earlier work

T1 sequence (P03156 680-832, added parts left off, stated change not applied): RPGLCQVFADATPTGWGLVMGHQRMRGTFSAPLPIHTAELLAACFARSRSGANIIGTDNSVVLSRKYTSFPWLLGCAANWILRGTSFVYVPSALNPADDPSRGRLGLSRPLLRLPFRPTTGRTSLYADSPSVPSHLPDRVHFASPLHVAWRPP
T2 sequence (P03156 680-786, added parts left off, stated change not applied): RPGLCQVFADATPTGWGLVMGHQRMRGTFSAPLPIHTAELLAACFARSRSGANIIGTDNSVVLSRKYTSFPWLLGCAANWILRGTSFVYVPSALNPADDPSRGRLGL
HCV RNA-directed RNA polymerase, sequence (P27958 2421-3011): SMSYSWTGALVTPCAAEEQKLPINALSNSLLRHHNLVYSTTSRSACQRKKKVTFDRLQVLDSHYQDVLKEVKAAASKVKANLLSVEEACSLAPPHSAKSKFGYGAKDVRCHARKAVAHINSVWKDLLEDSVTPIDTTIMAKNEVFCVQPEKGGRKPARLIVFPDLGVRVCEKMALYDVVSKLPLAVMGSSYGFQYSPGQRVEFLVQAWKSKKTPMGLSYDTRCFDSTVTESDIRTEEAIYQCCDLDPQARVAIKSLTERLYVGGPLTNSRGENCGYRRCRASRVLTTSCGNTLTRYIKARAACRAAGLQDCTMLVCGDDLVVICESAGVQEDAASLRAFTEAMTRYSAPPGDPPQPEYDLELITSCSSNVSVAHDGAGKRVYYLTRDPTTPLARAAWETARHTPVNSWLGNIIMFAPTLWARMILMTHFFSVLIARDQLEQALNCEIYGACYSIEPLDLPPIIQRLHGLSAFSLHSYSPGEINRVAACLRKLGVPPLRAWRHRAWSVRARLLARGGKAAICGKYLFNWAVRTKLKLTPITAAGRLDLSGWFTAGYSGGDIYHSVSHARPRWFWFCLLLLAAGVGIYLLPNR

SMILES | Residual activity at 10 uM, Genotype D [1] [Percent DMSO control] | Activity vs. HBV Biochemical vs. gtD [1] | Residual activity at 10 uM, Genotype H [2] [Percent DMSO control] | Residual activity at 10 uM, HHC1 [3] [Percent DMSO control] | Activity vs. HBV Genomic Replication [4] | Inhibition of poly-G production by HCV RNA polymerase [5] | Carcinogenicity or mutagenicity [6] | Inhibition ([1]; at 50 μM) [%] | Inhibition plateau ([1]; between 3 and 40 μM)
Cc1cc(C)c(C#N)c(=N)o1 [Compound 5] | 42 ± 15 | + (+ inhibition at 60 μM) | 76 ± 14 | 36 ± 6 | − (− no activity at 60 μM) | do not significantly inhibit | – | – | –
Nc1ccn([C@H]2CS[C@@H](CO)O2)c(=O)n1 [Lamivudine, 2′,3′-dideoxy-3′-thiacytidine] | – | – | – | – | – | – | no evidence of carcinogenicity or mutagenicity | – | –
CCOC(=O)c1sc(NC(=O)CSc2nnc(Cc3ccccc3)o2)c(C#N)c1C [Compound 6] | 40 ± 16 | + (+ inhibition at 60 μM) | 81 ± 24 | 55 ± 23 | − (− no activity at 60 μM) | do not significantly inhibit | – | 75 | 20-30%
